Measured values taken from patent US20230111310A1, “CARBOXYLIC ACID DERIVATIVE-SUBSTITUTED IMINO ARYL COMPOUND, PREPARATION METHOD THEREFOR, HERBICIDAL COMPOSITION AND USE THEREOF” (Qingdao Kingagroot Chemical Compound Co., Ltd., priority 2020, published 2023).

Experiments:
Type in all cases: in vivo
Eleusine indica = assay: Weeding effect in post-emergence stage; settings: for Weeding effect in post-emergence stage, Eleusine indica: level of fresh weight growth control rate; for Weeding effect in post-emergence stage, Eleusine indica (level): fresh weight control rate level
Method in brief: (§1)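 Seeds are sown in soil-filled pots under 0.5-2 cm soil and grown 2 weeks in greenhouse. Plants at 2-3 leaves are sprayed with compound (acetone, Tween 80, 1.5 liter/ha methyl oleate EC, water) at 7.5 to 500 g/ha. Damage is rated 3 weeks later, averaging three repeats.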

Setaria viridis [1] = assay: Weeding effect in post-emergence stage; settings: for Weeding effect in post-emergence stage, Setaria viridis: level of fresh weight growth control rate; for Weeding effect in post-emergence stage, Setaria viridis (level): fresh weight control rate level
Method in brief: as §1

Abutilon theophrasti [2] = assay: Weeding effect in post-emergence stage; settings: for Weeding effect in post-emergence stage, Abutilon theophrasti: level of fresh weight growth control rate; for Weeding effect in post-emergence stage, Abutilon theophrasti (level): fresh weight control rate level
Method in brief: as §1

Alopecurus japonicus = assay: Weeding effect in post-emergence stage; settings: for Weeding effect in post-emergence stage, Alopecurus japonicus: level of fresh weight growth control rate; for Weeding effect in post-emergence stage, Alopecurus japonicus (level): fresh weight control rate level
Method in brief: as §1

Digitaria sanguinalis = assay: Weeding effect in post-emergence stage; settings: for Weeding effect in post-emergence stage, Digitaria sanguinalis: level of fresh weight growth control rate; for Weeding effect in post-emergence stage, Digitaria sanguinalis (level): fresh weight control rate level
Method in brief: as §1

Amaranthus retroflexus = assay: Weeding effect in pre-emergence stage; settings: 30 g/ha, 4 weeks
Method: (§2) The activity level criteria for plant damage (i.e., growth control rate) are as follows:
(§3) The aforementioned seeds of monocotyledonous and dicotyledonous weeds and main crops were put into a plastic pot loaded with soil and covered with 0.5-2 cm soil. The test compounds of the present invention was dissolved with acetone, then added with tween 80, diluted by a certain amount of water to reach a certain concentration, and sprayed immediately after sowing. The obtained seeds were incubated for 4 weeks in the greenhouse after spraying and the test results were observed. It was observed that the herbicide mostly had excellent effect at the application rate of 500, 250, 125, 60, 30, 15, 7.5 g/ha, especially to weeds such as Echinochloa crusgalli. Digitaria sanguinalis and Abutilon theophrasti, etc. And many compounds had good selectivity for corn, cotton, wheat, rice, soybean, and peanut etc. In addition, evaluate the weed control effect with the above activity standard level.

Setaria viridis [3] = assay: Weeding effect in pre-emergence stage; settings: 30 g/ha, 4 weeks
Method: as §2, §3

Abutilon theophrasti [4] = assay: Weeding effect in pre-emergence stage; settings: 30 g/ha, 4 weeks
Method: as §2, §3

Veronica didyma Tenore = assay: Weeding effect in pre-emergence stage; settings: 30 g/ha, 4 weeks
Method: as §2, §3

Capsella bursa-pastoris = assay: Weeding effect in pre-emergence stage; settings: 30 g/ha, 4 weeks
Method: as §2, §3

Descurainia sophia = assay: Weeding effect in pre-emergence stage; settings: 30 g/ha, 4 weeks
Method: as §2, §3

cotton = assay: Pre-emergence stage, crop selectivity; settings: 30 g/ha, 4 weeks
Method: as §2, §3

corn = assay: Pre-emergence stage, crop selectivity; settings: 30 g/ha, 4 weeks
Method: as §2, §3

Peanut = assay: Pre-emergence stage, crop selectivity; settings: 30 g/ha, 4 weeks
Method: as §2, §3

Soybeans = assay: Pre-emergence stage, crop selectivity; settings: 30 g/ha, 4 weeks
Method: as §2, §3

Echinochloa crusgalli = assay: Weeding effect in post-emergence stage; settings: for Weeding effect in post-emergence stage, Echinochloa crusgalli: level of fresh weight growth control rate; for Weeding effect in post-emergence stage, Echinochloa crusgalli (level): fresh weight control rate level
Method in brief: as §1

| Compound | Weeding effect in post-emergence stage, Eleusine indica (Eleusine indica; Dose 15 g/ha) | Weeding effect in post-emergence stage, Setaria viridis (Setaria viridis [1]; Dose 15 g/ha) | Weeding effect in post-emergence stage, Abutilon theophrasti (Abutilon theophrasti [2]; Dose 15 g/ha) | Weeding effect in post-emergence stage, Alopecurus japonicus (Alopecurus japonicus; Dose 15 g/ha) | Weeding effect in post-emergence stage, Digitaria sanguinalis (Digitaria sanguinalis; Dose 15 g/ha) | activity level (growth control rate) Amaranthus retroflexus (Amaranthus retroflexus) | activity level (growth control rate) Setaria viridis (Setaria viridis [3]) | activity level (growth control rate) Abutilon theophrasti (Abutilon theophrasti [4]) | activity level (growth control rate) Veronica didyma Tenore (Veronica didyma Tenore) | activity level (growth control rate) Capsella bursa-pastoris (Capsella bursa-pastoris) | activity level (growth control rate) Descurainia sophia (Descurainia sophia) | plant damage level Cotton (cotton) | plant damage level Corn (corn) | plant damage level Peanut (Peanut) | plant damage level Soybeans (Soybeans) | Weeding effect in post-emergence stage, Echinochloa crusgalli (Echinochloa crusgalli; Dose 15 g/ha) | also measured |
| --- | --- | --- | --- | --- | --- | --- | --- | --- | --- | --- | --- | --- | --- | --- | --- | --- | --- |
| CCOC(=O)[C@@H](C)O/N=C/c1cc(-n2c(=O)n(C)c(=S)n(C)c2=O)c(F)cc1Cl [2(R)] | 5 (Level 5: growth control rate is above 85%) | 5 (Level 5: growth control rate is above 85%) | 5 (Level 5: growth control rate is above 85%) | 5 (Level 5: growth control rate is above 85%) | 5 (Level 5: growth control rate is above 85%) | 5 (Level 5: growth control rate is above 85%) | 5 (Level 5: growth control rate is above 85%) | 5 (Level 5: growth control rate is above 85%) | 5 (Level 5: growth control rate is above 85%) | 5 (Level 5: growth control rate is above 85%) | 5 (Level 5: growth control rate is above 85%) | 0 (Level 0: growth control rate is less than 5%) | 0 (Level 0: growth control rate is less than 5%) | 0 (Level 0: growth control rate is less than 5%) | 0 (Level 0: growth control rate is less than 5%) | 5 (Level 5: growth control rate is above 85%) | – |
| CCCOC(=O)[C@@H](C)O/N=C/c1cc(-n2c(=O)cc(C(F)(F)F)n(C)c2=O)c(F)cc1Cl [198(R)] | 5 (Level 5: growth control rate is above 85%) | 5 (Level 5: growth control rate is above 85%) | 5 (Level 5: growth control rate is above 85%) | 5 (Level 5: growth control rate is above 85%) | 5 (Level 5: growth control rate is above 85%) | 5 (Level 5: growth control rate is above 85%) | 5 (Level 5: growth control rate is above 85%) | 5 (Level 5: growth control rate is above 85%) | 5 (Level 5: growth control rate is above 85%) | 5 (Level 5: growth control rate is above 85%) | 5 (Level 5: growth control rate is above 85%) | 0 (Level 0: growth control rate is less than 5%) | 0 (Level 0: growth control rate is less than 5%) | 0 (Level 0: growth control rate is less than 5%) | 0 (Level 0: growth control rate is less than 5%) | 5 (Level 5: growth control rate is above 85%) | – |
| CC(C)OC(=O)[C@@H](C)O/N=C/c1cc(-n2c(=O)cc(C(F)(F)F)n(C)c2=O)c(F)cc1Cl [199(R)] | 5 (Level 5: growth control rate is above 85%) | 5 (Level 5: growth control rate is above 85%) | 5 (Level 5: growth control rate is above 85%) | 5 (Level 5: growth control rate is above 85%) | 5 (Level 5: growth control rate is above 85%) | 5 (Level 5: growth control rate is above 85%) | 5 (Level 5: growth control rate is above 85%) | 5 (Level 5: growth control rate is above 85%) | 5 (Level 5: growth control rate is above 85%) | 5 (Level 5: growth control rate is above 85%) | 5 (Level 5: growth control rate is above 85%) | 0 (Level 0: growth control rate is less than 5%) | 0 (Level 0: growth control rate is less than 5%) | 0 (Level 0: growth control rate is less than 5%) | 0 (Level 0: growth control rate is less than 5%) | 5 (Level 5: growth control rate is above 85%) | – |
| C=CCOC(=O)[C@@H](C)O/N=C/c1cc(-n2c(=O)cc(C(F)(F)F)n(C)c2=O)c(F)cc1Cl [208(R)] | 5 (Level 5: growth control rate is above 85%) | 5 (Level 5: growth control rate is above 85%) | 5 (Level 5: growth control rate is above 85%) | 5 (Level 5: growth control rate is above 85%) | 5 (Level 5: growth control rate is above 85%) | 5 (Level 5: growth control rate is above 85%) | 5 (Level 5: growth control rate is above 85%) | 5 (Level 5: growth control rate is above 85%) | 5 (Level 5: growth control rate is above 85%) | 5 (Level 5: growth control rate is above 85%) | 5 (Level 5: growth control rate is above 85%) | 0 (Level 0: growth control rate is less than 5%) | 0 (Level 0: growth control rate is less than 5%) | 0 (Level 0: growth control rate is less than 5%) | 0 (Level 0: growth control rate is less than 5%) | 5 (Level 5: growth control rate is above 85%) | – |
| CCOC(=O)CO/N=C/c1cc(-n2c(=O)cc(C(F)(F)F)[nH]c2=O)ccc1Cl [Control compound B, reference compound] | – | – | – | – | – | – | – | – | – | – | – | – | – | – | – | – | Weeding effect in post-emergence stage, Eleusine indica (level) (Eleusine indica; Dose 15 g/ha): 1 (Level 1: growth control rate is greater than or equal to 5% and less than 20%); Weeding effect in post-emergence stage, Setaria viridis (level) (Setaria viridis [1]; Dose 15 g/ha): 2 (Level 2: growth control rate is greater than or equal to 20% and less than 40%); Weeding effect in post-emergence stage, Abutilon theophrasti (level) (Abutilon theophrasti [2]; Dose 15 g/ha): 3 (Level 3: growth control rate is greater than or equal to 40% and less than 60%); Weeding effect in post-emergence stage, Alopecurus japonicus (level) (Alopecurus japonicus; Dose 15 g/ha): 1 (Level 1: growth control rate is greater than or equal to 5% and less than 20%); Weeding effect in post-emergence stage, Digitaria sanguinalis (level) (Digitaria sanguinalis; Dose 15 g/ha): 2 (Level 2: growth control rate is greater than or equal to 20% and less than 40%); Weeding effect in post-emergence stage, Echinochloa crusgalli (level) (Echinochloa crusgalli; Dose 15 g/ha): 2 (Level 2: growth control rate is greater than or equal to 20% and less than 40%) |
| CO/N=C/c1cc(-n2c(=O)cc(C(F)(F)F)n(N)c2=O)c(F)cc1Cl [Control compound C, reference compound] | – | – | – | – | – | – | – | – | – | – | – | – | – | – | – | – | Weeding effect in post-emergence stage, Eleusine indica (level) (Eleusine indica; Dose 15 g/ha): 1 (Level 1: growth control rate is greater than or equal to 5% and less than 20%); Weeding effect in post-emergence stage, Setaria viridis (level) (Setaria viridis [1]; Dose 15 g/ha): 2 (Level 2: growth control rate is greater than or equal to 20% and less than 40%); Weeding effect in post-emergence stage, Abutilon theophrasti (level) (Abutilon theophrasti [2]; Dose 15 g/ha): 2 (Level 2: growth control rate is greater than or equal to 20% and less than 40%); Weeding effect in post-emergence stage, Alopecurus japonicus (level) (Alopecurus japonicus; Dose 15 g/ha): 1 (Level 1: growth control rate is greater than or equal to 5% and less than 20%); Weeding effect in post-emergence stage, Digitaria sanguinalis (level) (Digitaria sanguinalis; Dose 15 g/ha): 2 (Level 2: growth control rate is greater than or equal to 20% and less than 40%); Weeding effect in post-emergence stage, Echinochloa crusgalli (level) (Echinochloa crusgalli; Dose 15 g/ha): 2 (Level 2: growth control rate is greater than or equal to 20% and less than 40%) |
| CCOC(=O)CO/N=C/c1cccc(-n2c(=O)cc(C(F)(F)F)[nH]c2=O)c1 [Control compound F, reference compound] | – | – | – | – | – | – | – | – | – | – | – | – | – | – | – | – | Weeding effect in post-emergence stage, Eleusine indica (level) (Eleusine indica; Dose 60 g/ha): 1 (Level 1: growth control rate is greater than or equal to 5% and less than 20%); Weeding effect in post-emergence stage, Setaria viridis (level) (Setaria viridis [1]; Dose 60 g/ha): 1 (Level 1: growth control rate is greater than or equal to 5% and less than 20%); Weeding effect in post-emergence stage, Abutilon theophrasti (level) (Abutilon theophrasti [2]; Dose 60 g/ha): 2 (Level 2: growth control rate is greater than or equal to 20% and less than 40%); Weeding effect in post-emergence stage, Alopecurus japonicus (level) (Alopecurus japonicus; Dose 60 g/ha): 0 (Level 0: growth control rate is less than 5%); Weeding effect in post-emergence stage, Digitaria sanguinalis (level) (Digitaria sanguinalis; Dose 60 g/ha): 1 (Level 1: growth control rate is greater than or equal to 5% and less than 20%); Weeding effect in post-emergence stage, Echinochloa crusgalli (level) (Echinochloa crusgalli; Dose 60 g/ha): 0 (Level 0: growth control rate is less than 5%) |
